Test results as given in the supplement of paper PMC10307832.

Tests used:
Assay in all cases: relative viability (nuclei count vs DMSO), 5 days (fraction); higher = more cells survive
[1] = compound: C1CNCCC1C2=CC(=NN2)C3=CC=NC=C3 + O=C(CCCCCCC(=O)Nc1ccccc1)NO [Vorinostat] (partner 1 µM)
How it was run: (§1)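 Medians of duplicate plates are given as relative viability. That measure is the nuclei count in treated wells divided by the count in vehicle wells. Counts were taken on 4× images of lung cancer cell lines in 1536-well plates, 5 days after pin-tool dosing the day after seeding with one drug alone or a fixed anchor-drug dose plus five library-drug doses (not always all listed) in √10 steps.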

[2] = compound: C[C@@H](N)c1ccc(C(=O)Nc2ccnc3[nH]ccc23)cc1 + COc1cccc2cc(-c3nc([C@H]4CC[C@H](C(=O)O)CC4)n4ncnc(N)c34)[nH]c12 [OSI-027] (partner 0.5 µM)
How it was run: as §1

Tanzisertib + Alpelisib = compound: O[C@H]1CC[C@H](Nc2ncc3nc(Nc4c(F)cc(F)cc4F)n([C@H]4CCOC4)c3n2)CC1 [Tanzisertib] + Cc1nc(NC(=O)N2CCC[C@H]2C(N)=O)sc1-c1ccnc(C(C)(C)C(F)(F)F)c1 [Alpelisib] (partner 2 µM)
How it was run: as §1

[3] = compound: C1CNCCC1C2=CC(=NN2)C3=CC=NC=C3 + COc1cccc2cc(-c3nc([C@H]4CC[C@H](C(=O)O)CC4)n4ncnc(N)c34)[nH]c12 [OSI-027] (partner 0.5 µM)
How it was run: as §1

Cell Line	relative viability ([1]; first compound 0.08 µM)	relative viability ([1]; first compound 2.53 µM)	relative viability ([1]; first compound 8 µM)	relative viability ([2]; first compound 0.04 µM)	relative viability ([2]; first compound 0.1265 µM)	relative viability ([2]; first compound 0.4 µM)	relative viability ([2]; first compound 1.265 µM)	relative viability ([2]; first compound 4 µM)	relative viability (Tanzisertib + Alpelisib; first compound 0.08 µM)	relative viability (Tanzisertib + Alpelisib; first compound 0.253 µM)	relative viability (Tanzisertib + Alpelisib; first compound 0.8 µM)	relative viability (Tanzisertib + Alpelisib; first compound 2.53 µM)	relative viability (Tanzisertib + Alpelisib; first compound 8 µM)	relative viability ([3]; first compound 0.08 µM)	relative viability ([3]; first compound 0.8 µM)	relative viability ([3]; first compound 2.53 µM)	relative viability ([3]; first compound 8 µM)	relative viability ([1]; first compound 0.8 µM)
H3255	0.95	0.995	0.937	0.624	0.727	0.745	0.725	0.783	0.739	0.718	0.665	0.629	0.471	0.52	0.629	0.577	0.759	–
NCI-H2228	0.537	0.667	0.587	0.581	0.618	0.65	0.786	0.543	0.934	0.67	0.806	0.737	0.539	0.61	0.653	0.649	0.689	0.589
CAL-12T	0.693	0.964	0.981	1.19	0.784	0.928	0.3	0.78	1.32	1.14	1.09	1.4	1.17	0.823	0.866	0.84	0.839	0.932
A-427	0.842	0.891	0.762	0.407	0.392	0.509	–	0.466	1.11	1.11	1.06	1.06	0.96	0.463	0.477	0.473	0.499	0.982
HARA	0.669	0.527	0.481	–	0.437	0.638	–	0.481	0.752	0.762	0.852	0.795	0.842	0.552	0.524	0.627	0.404	0.62
NCI-H1793	0.647	0.985	0.874	0.322	0.284	0.254	–	0.355	0.842	0.532	0.754	0.754	0.733	0.261	0.246	0.302	0.23	–
NCI-H1623	–	–	–	0.559	0.418	0.502	0.469	0.503	–	–	–	–	–	0.451	0.504	0.488	0.42	–
NCI-H2009	0.754	0.8	0.728	0.675	0.77	0.655	0.714	0.624	1.24	1.2	1.14	1.19	1.17	0.761	0.699	0.749	0.725	0.693
ABC-1	1.2	1.1	1.14	0.502	0.603	0.559	–	0.511	1.1	1.06	1.03	1.3	1.09	0.556	0.484	0.65	0.575	1.01
IA-LM	0.974	0.95	1.03	–	–	–	–	–	0.908	0.802	0.83	0.85	0.956	–	–	–	–	1.06
